Where “and” joins values, the source holds several entries; their conditions need not be identical. Equal entries are not always repeated. Structures can show the parent of a compound that is named as a salt.
Experiments:
[1] = Stressed thermal stability test (70° C. for 58 hours), impurities by HPLC; type: physicochemical
Source text: However, the presence of free HCl in Atomoxetine Hydrochloride, which is easily detected by a pH test of a solution of Atomoxetine Hydrochloride in water, results in significant degradation of the Atomoxetine Hydrochloride, as described below.

[2] = Determination of pH of Atomoxetine Hydrochloride samples in aqueous solution; type: physicochemical; details: for pH of 2% (w/V) aqueous solution / aqueous pH test results: Hydrochloride; for pH (2% in H2O): wet samples after filtration from crystallization medium; for aqueous pH test results: samples of the 40° C. stability test
Method: The present invention provides a method for analyzing Atomoxetine Hydrochloride stability, comprising determining the pH of a sample of Atomoxetine Hydrochloride in aqueous solution. The process comprises dissolving Atomoxetine Hydrochloride in water at a temperature of about 20° C. to about 30° C. to obtain a solution and measuring the pH. Preferably, the dissolution of Atomoxetine Hydrochloride is accelerated by using a sonication. Preferably, the pH is measured with a glass electrode.
A 2 g sample of Atomoxetine Hydrochloride is dissolved in 100 ml of deionized water at temperature between about 20° C. and about 30° C. with sonication if required to obtain a complete solution. The pH is measured with a glass electrode at temperature of between about 20° C. and about 30° C.

[3] = as above; type: physicochemical; details: Example 2, after first water slurry and wash, 200 mg in 10 ml water
[4] = Drying wet Atomoxetine Hydrochloride in a vacuum oven at 70° C., impurities by HPLC; type: physicochemical; details: HPLC results, weight percent
Source text: These experimental results are in agreement with the previously described stability data.

[5] = Stability test (40° C., five days), impurities by HPLC; type: physicochemical
Method: At lower temperatures, e.g., 40° C., the stability of Atomoxetine Hydrochloride samples, having a water solution pH test of less than 4 are compromised, while Atomoxetine Hydrochloride samples, having a water solution pH test of greater than 4, are stable.

[6] = Stability test (40° C., 75% RH), impurities by HPLC; type: physicochemical
[7] = Contact of dry Atomoxetine Hydrochloride with HCl gas flow at room temperature, impurities by HPLC
[8] = End of test time, Hydrochloride
[9] = After drying in vacuum oven at 70° C.
[10] = After contact with HCl gas flow, room temperature
[11] = Before contact with HCl gas flow

SMILES	Impurity (a) (HPLC A %) [1, 8]	Impurity (b) (HPLC A %) [1, 8]	Impurity (c) (HPLC A %) [1, 8]	Impurity (a) (HPLC A %) ([1]; Time zero)	Impurity (b) (HPLC A %) ([1]; Time zero)	Impurity (c) (HPLC A %) ([1]; Time zero)	pH of 2% (w/V) aqueous solution [2]	Impurity (a) (HPLC A %) [5, 8]	Impurity (b) (HPLC A %) [5, 8]	Impurity (c) (HPLC A %) [5, 8]	Impurity (b) (HPLC A %) ([5]; Time zero)	Impurity (a) (HPLC A %) ([5]; Time zero, Hydrochloride)	Impurity (c) (HPLC A %) ([5]; Time zero, Hydrochloride)	aqueous pH test results [2]	other results
CNCCC(Oc1ccccc1C)c1ccccc1 (single isomer, unassigned) [Sample 1, Atomoxetine Hydrochloride]	10.5% HPLC A %	14.2% HPLC A %	26.2% HPLC A %	not detected	not detected	not detected	2.4								
CNCCC(Oc1ccccc1C)c1ccccc1 (single isomer, unassigned) [Sample 2, Atomoxetine Hydrochloride]	not detected	not detected	not detected	not detected	not detected	not detected	5.8								
CNCCC(Oc1ccccc1C)c1ccccc1 (single isomer, unassigned) [Sample 3, Atomoxetine Hydrochloride]	not detected	not detected	not detected	not detected	not detected	not detected	6.0								
CNCCC(Oc1ccccc1C)c1ccccc1 (single isomer, unassigned) [Sample 4, Atomoxetine Hydrochloride]	not detected	not detected	not detected	not detected	not detected	not detected	5.9								
CNCC[C@@H](Oc1ccccc1C)c1ccccc1 [Atomoxetine Hydrochloride, (R)(−)-n-methyl-3-(2-methylphenoxy)-3-phenylpropylamine]															pH ([2]; Example 1, wet solids of two separate preparations, 2 g in 100 ml water): 2.39 and 2.40; pH ([2]; Example 2, after second water slurry and wash, wet, 2 g in 100 ml water): 5.9; pH ([2]; Example 3, after acetone washing and drying, about 2 percent w/V in water): 4.6; pH [3]: 4.4
CNCCC(Oc1ccccc1C)c1ccccc1 (stereo not shown) [Sample 5, Atomoxetine Hydrochloride]															pH (2% in H2O) [2]: 2.4; Impurity (a) [4, 9]: 0.31%; Impurity (b) [4, 9]: 0.04%; Impurity (c) [4, 9]: 0.12%; Impurity (a) ([4]; Before drying): not detected; Impurity (b) ([4]; Before drying): not detected; Impurity (c) ([4]; Before drying): not detected
CNCCC(Oc1ccccc1C)c1ccccc1 (stereo not shown) [Sample 6, Atomoxetine Hydrochloride]															pH (2% in H2O) [2]: 2.4
CNCCC(Oc1ccccc1C)c1ccccc1 (stereo not shown) [Sample 7, Atomoxetine Hydrochloride]								0.633% HPLC A %	0.0482% HPLC A %	0.689% HPLC A %	not detected	0.014% HPLC A %	0.018% HPLC A %	2.4	
CNCCC(Oc1ccccc1C)c1ccccc1 (stereo not shown) [Sample 11, Atomoxetine Hydrochloride]															Impurity (a) (HPLC A %) ([6]; 1 month): 0.02 HPLC A %; Impurity (b) (HPLC A %) ([6]; 1 month): 0.006 HPLC A %; Impurity (c) (HPLC A %) ([6]; 1 month): not detected; Impurity (a) (HPLC A %) ([6]; 2 months): 0.02 HPLC A %; Impurity (b) (HPLC A %) ([6]; 2 months): 0.007 HPLC A %; Impurity (c) (HPLC A %) ([6]; 2 months): not detected; Impurity (a) (HPLC A %) ([6]; 3 months): 0.02 HPLC A %; Impurity (b) (HPLC A %) ([6]; 3 months): 0.003 HPLC A %; Impurity (c) (HPLC A %) ([6]; 3 months): not detected; Impurity (a) (HPLC A %) ([6]; 6 month): 0.01 HPLC A %; Impurity (b) (HPLC A %) ([6]; 6 month): not detected; Impurity (c) (HPLC A %) ([6]; 6 month): not detected; Impurity (a) (HPLC A %) ([6]; Time zero): 0.01 HPLC A %; Impurity (b) (HPLC A %) ([6]; Time zero): not detected; Impurity (c) (HPLC A %) ([6]; Time zero): not detected
CNCCC(Oc1ccccc1C)c1ccccc1 (stereo not shown) [Sample 12, Atomoxetine Hydrochloride]															Impurity (a) [7, 10]: 0.10% HPLC A %; Impurity (b) [7, 10]: 0.032% HPLC A %; Impurity (c) [7, 10]: 1.54% HPLC A %; Impurity (a) [7, 11]: not detected; Impurity (b) [7, 11]: not detected; Impurity (c) [7, 11]: not detected; aqueous pH test result [2, 11]: 6.1; aqueous pH test result ([2]; after contact with HCl gas flow): 2.8

More lines, main results first:

Impurity (a) (HPLC A %) [1, 8]	Impurity (b) (HPLC A %) [1, 8]	Impurity (c) (HPLC A %) [1, 8]	Impurity (a) (HPLC A %) ([1]; Time zero)	Impurity (b) (HPLC A %) ([1]; Time zero)	Impurity (c) (HPLC A %) ([1]; Time zero)	pH of 2% (w/V) aqueous solution [2]	Impurity (a) (HPLC A %) [5, 8]	Impurity (b) (HPLC A %) [5, 8]	Impurity (c) (HPLC A %) [5, 8]	Impurity (b) (HPLC A %) ([5]; Time zero)	Impurity (a) (HPLC A %) ([5]; Time zero, Hydrochloride)	Impurity (c) (HPLC A %) ([5]; Time zero, Hydrochloride)	aqueous pH test results [2]	SMILES	other results
							not detected	not detected	not detected	not detected	not detected	not detected	4.4	CNCCC(Oc1ccccc1C)c1ccccc1 (stereo not shown) [Sample 8, Atomoxetine Hydrochloride]	
							not detected	not detected	not detected	not detected	not detected	not detected	4.8	CNCCC(Oc1ccccc1C)c1ccccc1 (stereo not shown) [Sample 9, Atomoxetine Hydrochloride]	
							not detected	not detected	not detected	not detected	not detected	not detected	6.1	CNCCC(Oc1ccccc1C)c1ccccc1 (stereo not shown) [Sample 10, Atomoxetine Hydrochloride]	

Reference: US7569729B2, “Stable atomoxetine hydrochloride, a process for the preparation thereof, and an analytical control of its stability” (Teva Pharmaceutical Fine Chemicals S.R.L., priority 2005, dated 2009)
